pIC50: −log10 of the molar value. Where only a bound is given, the exact number is not on record here.

One data set has as its target T1, Human thrombin (Homo sapiens, UniProt P00734).
T1 construct: purchased Haematologic Technologies Inc
Nature of the data set: Inhibition of the protease activity of thrombin (chromogenic substrate S-2238). It counts as biochemical. The note with it: Table C; 3 nM thrombin, 125 μM S-2238, 10 min pre-incubation, RT.
One may read the pIC50 as −log10 of the IC50, conventionally taken in molar units. Low values mean a large IC50, high ones a small IC50. The molecule `COc1ccccc1C(=O)n1nc(-c2ccccc2)nc1NCc1ccco1` [Cmpd 394, N-(furan-2-ylmethyl)-1-[(2-methoxyphenyl)carbonyl]-3-phenyl-1H-1,2,4-triazol-5-amine] showed a pIC50 greater than 7.00.

On to `CS(=O)(=O)n1nc(-c2cccnc2)nc1NCc1ccco1` [Cmpd 395, N-(furan-2-ylmethyl)-1-methanesulfonyl-3-(pyridin-3-yl)-1H-1,2,4-triazol-5-amine], for which the pIC50 was less than 6.00.

`O=C(c1cccnc1)n1nc(-c2cccnc2)nc1NCc1ccco1` [Cmpd 396, N-(furan-2-ylmethyl)-3-(pyridin-3-yl)-1-[(pyridin-3-yl)carbonyl]-1H-1,2,4-triazol-5-amine] showed a pIC50 of less than 6.00.

For the molecule `O=C(c1cccnc1)n1nc(-c2ccco2)nc1NCc1ccccc1Cl` [Cmpd 397, N-[(2-chlorophenyl)methyl]-3-(furan-2-yl)-1-[(pyridin-3-yl)carbonyl]-1H-1,2,4-triazol-5-amine], the pIC50 is 6.00 to 7.00.

As for `COc1ccccc1CNc1nc(-c2cccnc2)nn1C(=O)c1cccnc1` [Cmpd 398, N-[(2-methoxyphenyl)methyl]-3-(pyridin-3-yl)-1-[(pyridin-3-yl)carbonyl]-1H-1,2,4-triazol-5-amine], the pIC50 is less than 6.00.

On to `Cc1ccc(C(=O)n2nc(-c3cccnc3)nc2NCc2ccc(F)cc2)cc1` [Cmpd 401, N-[(4-fluorophenyl)methyl]-1-[(4-methylphenyl)carbonyl]-3-(pyridin-3-yl)-1H-1,2,4-triazol-5-amine], for which the pIC50 was greater than 7.00.

In the case of `O=C(c1ccco1)n1nc(-c2cccnc2)nc1NCc1ccc(F)cc1` [Cmpd 402, N-[(4-fluorophenyl)methyl]-1-[(furan-2-yl)carbonyl]-3-(pyridin-3-yl)-1H-1,2,4-triazol-5-amine], the pIC50 was greater than 7.00.

With `O=C(c1cccs1)n1nc(-c2cccnc2)nc1NCc1ccc(F)cc1` [Cmpd 403, N-[(4-fluorophenyl)methyl]-3-(pyridin-3-yl)-1-[(thiophen-2-yl)carbonyl]-1H-1,2,4-triazol-5-amine], the pIC50 was greater than 7.00.

Consider `COc1ccc(CNc2nc(-c3cccnc3)nn2C(=O)c2ccc(C)cc2)cc1` [Cmpd 404, N-[(4-methoxyphenyl)methyl]-1-[(4-methylphenyl)carbonyl]-3-(pyridin-3-yl)-1H-1,2,4-triazol-5-amine], for which the pIC50 was 6.00 to 7.00.

Take `COc1ccc(CNc2nc(-c3cccnc3)nn2C(=O)c2cccs2)cc1` [Cmpd 405, N-[(4-methoxyphenyl)methyl]-3-(pyridin-3-yl)-1-[(thiophen-2-yl)carbonyl]-1H-1,2,4-triazol-5-amine]: the pIC50 is less than 6.00.

In turn, `CC(=O)Nc1n[nH]c(NCc2ccccc2)n1` [Cmpd 406, N-[5-(benzylamino)-1H-1,2,4-triazol-3-yl]acetamide] gave a pIC50 of less than 6.00.

In the case of `O=C(Nc1n[nH]c(-c2ccco2)n1)c1ccccc1` [Cmpd 407, N-[5-(furan-2-yl)-1H-1,2,4-triazol-3-yl]benzamide], the pIC50 was less than 6.00.

Molecule `O=C(c1ccccc1Cl)n1nc(-c2ccco2)nc1NCc1ccccc1` [Cmpd 408, N-benzyl-1-[(2-chlorophenyl)carbonyl]-3-(furan-2-yl)-1H-1,2,4-triazol-5-amine] showed a pIC50 greater than 7.00.

`O=C(c1ccccc1Cl)n1nc(-c2cccs2)nc1NCc1ccccc1` [Cmpd 409, N-benzyl-1-[(2-chlorophenyl)carbonyl]-3-(thiophen-2-yl)-1H-1,2,4-triazol-5-amine] showed a pIC50 greater than 7.00.

Molecule `Cc1ccc(C(=O)n2nc(-c3cccnc3)nc2NCc2ccccc2)cc1` [Cmpd 411, N-benzyl-1-[(4-methylphenyl)carbonyl]-3-(pyridin-3-yl)-1H-1,2,4-triazol-5-amine] had a pIC50 greater than 7.00.

For the molecule `O=C(c1cccs1)n1nc(-c2cccs2)nc1NCc1ccccc1` [Cmpd 412, N-benzyl-3-(thiophen-2-yl)-1-[(thiophen-2-yl)carbonyl]-1H-1,2,4-triazol-5-amine], the pIC50 was less than 6.00.

Another data set relates to malignant breast tumors.
Assay: not given
The note with it: at 4 weeks, treated mice; cited from earlier work.
For `CCCCCCOC(=O)NC(=N)c1ccc(NCc2nc3cc(C(=O)N(CCC(=O)OCC)c4ccccn4)ccc3n2C)cc1` [dabigatran etexilate], the “reduction in tumor volume” value was 50%.

Still in this data set, the particulars now being: at 4 weeks; cited from earlier work.
As for `CCCCCCOC(=O)NC(=N)c1ccc(NCc2nc3cc(C(=O)N(CCC(=O)OCC)c4ccccn4)ccc3n2C)cc1` [dabigatran etexilate], the “weight loss in treated mice” value was “no weight loss”.

Still in this data set, the particulars now being: treated mice; cited from earlier work.
For the molecule `CCCCCCOC(=O)NC(=N)c1ccc(NCc2nc3cc(C(=O)N(CCC(=O)OCC)c4ccccn4)ccc3n2C)cc1` [dabigatran etexilate], the “reduced tumor cells in the blood and liver micrometastases” value is recorded as 50-60%.

The record behind these values is US20170326125A1, “MULTISUBSTITUTED AROMATIC COMPOUNDS AS INHIBITORS OF THROMBIN” (VERSEON CORPORATION, priority 2016, published 2017).
